{"source": "patent US20110015080A1", "about": "“Solution-based methods for RNA expression profiling” (MASSACHUSETTS INSTITUTE OF TECHNOLOGY, priority 2005, published 2011)", "system": "HL60 (human promyelocytic leukemia) cells", "experiment": "LMA-FlexMAP bead-based gene expression signature analysis of total RNA from HL60 cells treated with tretinoin or DMSO (ninety transcripts); on FlexMap NM 003332 LUA#43: test concentration or dose not given here", "details": "replicate columns", "key": {"[1]": {"details": "Experiment 2, HL60 cells, Tretinoin-treated"}}, "note": "Values joined by “and” are separate entries in the source; they are usually repeats but may differ in a detail not shown here. Identical values can stand only once.", "data": [{"smiles": "CC1=C(/C=C/C(C)=C/C=C/C(C)=C/C(=O)O)C(C)(C)CCC1", "note": "[tretinoin, all-trans-retinoic acid]", "values": [{"measurement": "FlexMap NM_003132 LUA#68", "setting": "Experiment 2, Tretinoin", "value": "635 and 618 and 721 and 690.5 and 680 and 633 and 648 and 716"}, {"measurement": "FlexMap NM_003172 LUA#19", "setting": "Experiment 2, Tretinoin", "value": "333 (2×) and 312.5 and 370 and 365 and 330 and 352 and 380"}, {"measurement": "FlexMap NM_003332 LUA#43", "setting": "Experiment 2, Tretinoin", "value": "2733 and 2691.5 and 2589.5 and 2832 and 2821 and 2704 and 2692 and 2772"}, {"measurement": "FlexMap NM_003581 LUA#62", "setting": "Experiment 2, Tretinoin", "value": "55 (2×) and 54 and 114 and 78 and 85 and 59.5 and 53"}, {"measurement": "FlexMap NM_003644 LUA#17", "setting": "Experiment 2, Tretinoin", "value": "274 (2×) and 259 and 319 and 269 and 192 and 231 and 300"}, {"measurement": "FlexMap NM_003752 LUA#82", "setting": "Experiment 2, Tretinoin", "value": "139 and 142 and 168 and 149.5 and 150 and 153 and 162 and 164"}, {"measurement": "FlexMap NM_003879 LUA#24", "setting": "Experiment 2, Tretinoin", "value": "95 and 96.5 and 93 and 91.5 and 86 and 84 and 82 and 97"}, {"measurement": "FlexMap NM_004079 LUA#21", "setting": "Experiment 2, Tretinoin", "value": "150 and 147 and 144 and 133 and 133.5 and 142 and 143 and 152"}, {"measurement": "FlexMap NM_004095 LUA#59", "setting": "Experiment 2, Tretinoin", "value": "293 (2×) and 227 and 287 and 286.5 and 270 and 294 and 331"}, {"measurement": "FlexMap NM_004106 LUA#44", "setting": "Experiment 2, Tretinoin", "value": "1697 and 1748 and 1762 and 1756 and 1799 and 1678 and 1587.5 and 1827"}, {"measurement": "FlexMap NM_004134 LUA#76", "setting": "Experiment 2, Tretinoin", "value": "406 and 372 and 423.5 and 417 and 415 (2×) and 383 and 426"}, {"measurement": "FlexMap NM_004152 LUA#31", "setting": "Experiment 2, Tretinoin", "value": "2347 and 1882 and 2313 and 2471.5 and 2477.5 and 2269 and 2335.5 and 2470"}, {"measurement": "FlexMap NM_004526 LUA#88", "setting": "Experiment 2, Tretinoin", "value": "256 and 233 and 244 and 270 and 260 and 240.5 and 243 and 277"}, {"measurement": "FlexMap NM_004602 LUA#32", "setting": "Experiment 2, Tretinoin", "value": "303 and 274 and 320 and 337 and 334 and 363 and 355.5 and 296"}, {"measurement": "FlexMap NM_004723 LUA#20", "setting": "Experiment 2, Tretinoin", "value": "501 and 420 and 472.5 and 498 and 506 and 470 and 487.5 and 538"}, {"measurement": "FlexMap NM_004741 LUA#89", "setting": "Experiment 2, Tretinoin", "value": "402.5 and 370.5 and 329 and 324 and 317 and 325 and 328"}, {"measurement": "FlexMap NM_004759 LUA#37", "setting": "Experiment 2, Tretinoin", "value": "206.5 and 235 and 284 and 179 and 207.5 and 192 and 195 and 201"}, {"measurement": "FlexMap NM_005008 LUA#77", "setting": "Experiment 2, Tretinoin", "value": "452.5 (2×) and 393 and 501 and 482 and 432 and 439.5 and 502.5"}, {"measurement": "FlexMap NM_005375 LUA#86", "setting": "Experiment 2, Tretinoin", "value": "565 and 642 and 552 and 568 and 593 and 585 and 589 and 587"}, {"measurement": "FlexMap NM_005566 LUA#85", "setting": "Experiment 2, Tretinoin", "value": "744 and 745 and 851 and 821 and 830 and 748 and 752 and 776.5"}, {"measurement": "FlexMap NM_005914 LUA#60", "setting": "Experiment 2, Tretinoin", "value": "1161.5 and 1104 and 871 and 1091 and 1131 and 1081.5 and 1125 and 1172.5"}, {"measurement": "FlexMap NM_005915 LUA#72", "setting": "Experiment 2, Tretinoin", "value": "47 (4×) and 43 and 44 and 49 and 54"}, {"measurement": "FlexMap NM_005952 LUA#66", "setting": "Experiment 2, Tretinoin", "value": "243 and 261.5 and 265 and 274 and 260 and 263 and 224 and 268"}, {"measurement": "FlexMap NM_005980 LUA#73", "setting": "Experiment 2, Tretinoin", "value": "202 and 190 and 197 and 212 and 204 and 187 and 188 and 209.5"}, {"measurement": "FlexMap NM_006019 LUA#35", "setting": "Experiment 2, Tretinoin", "value": "907 and 1033 and 1059 and 938.5 and 911.5 and 862 and 871 and 956"}, {"measurement": "FlexMap NM_006138 LUA#56", "setting": "Experiment 2, Tretinoin", "value": "124 and 117 and 115.5 and 111 and 127 and 118 and 119.5 and 120"}, {"measurement": "FlexMap NM_006432 LUA#27", "setting": "Experiment 2, Tretinoin", "value": "1693 and 1842 and 1767 and 1718 and 1798 and 1725 and 1678 and 1814"}, {"measurement": "FlexMap NM_006452 LUA#71", "setting": "Experiment 2, Tretinoin", "value": "86 (2×) and 83.5 and 93 and 90 (2×) and 88 and 96"}, {"measurement": "FlexMap NM_006985 LUA#58", "setting": "Experiment 2, Tretinoin", "value": "56 and 50 (2×) and 55 and 52 and 54 and 60 and 63"}, {"measurement": "FlexMap NM_007282 LUA#16", "setting": "Experiment 2, Tretinoin", "value": "58 and 53 and 61 (2×) and 69 and 64 and 59 and 62"}, {"measurement": "FlexMap NM_014333 LUA#26", "setting": "Experiment 2, Tretinoin", "value": "720 (2×) and 704 and 706 and 712 and 662 and 633.5 and 726.5"}, {"measurement": "FlexMap NM_014366 LUA#61", "setting": "Experiment 2, Tretinoin", "value": "298.5 and 321 and 304.5 and 297 and 291 and 286.5 and 300 and 310.5"}, {"measurement": "FlexMap NM_014573 LUA#70", "setting": "Experiment 2, Tretinoin", "value": "178 and 154 and 187 and 179 and 161.5 and 172 and 157.5 and 198"}, {"measurement": "FlexMap NM_015201 LUA#57", "setting": "Experiment 2, Tretinoin", "value": "241 and 245.5 and 266 and 252 and 243 and 230 and 244 and 268.5"}, {"measurement": "FlexMap NM_018115 LUA#63", "setting": "Experiment 2, Tretinoin", "value": "1238 and 1270 and 1440 and 1028 and 1210 and 935.5 and 1175 and 1004"}, {"measurement": "FlexMap NM_018164 LUA#69", "setting": "Experiment 2, Tretinoin", "value": "198 and 200 and 205.5 and 182 (2×) and 188.5 and 186 and 211"}, {"measurement": "FlexMap NM_018256 LUA#83", "setting": "Experiment 2, Tretinoin", "value": "568 and 635.5 and 455 and 571 and 556 and 643 and 655 and 483.5"}, {"measurement": "FlexMap NM_018890 LUA#33", "setting": "Experiment 2, Tretinoin", "value": "934 and 873 and 1071 and 983 and 992 and 923.5 and 879 and 988"}, {"measurement": "FlexMap NM_019058 LUA#75", "setting": "Experiment 2, Tretinoin", "value": "177.5 and 194 (2×) and 192 and 181.5 and 179 and 176 and 171"}, {"measurement": "FlexMap NM_020117 LUA#78", "setting": "Experiment 2, Tretinoin", "value": "697 and 734 (2×) and 750 and 739 and 606 and 654 and 748"}, {"measurement": "FlexMap NM_021103 LUA#41", "setting": "Experiment 2, Tretinoin", "value": "2724 and 2581.5 and 2331.5 and 2558 and 2559 and 793 and 1990 and 2996.5"}, {"measurement": "FlexMap NM_021203 LUA#80", "setting": "Experiment 2, Tretinoin", "value": "657.5 and 657 and 757.5 and 703 and 701.5 and 650 and 660 and 741"}, {"measurement": "FlexMap NM_021974 LUA#64", "setting": "Experiment 2, Tretinoin", "value": "1286.5 and 1160 and 1272 and 1368.5 and 1315 and 1193.5 and 1269 and 1365"}, {"measurement": "FlexMap NM_024045 LUA#65", "setting": "Experiment 2, Tretinoin", "value": "178 and 149 and 163.5 and 164.5 and 175.5 and 158 and 157 and 182"}, {"measurement": "FlexMap TFRC LUA#92", "setting": "Experiment 2, Tretinoin", "value": "346 and 400.5 and 413 and 375 and 381 and 358 and 345.5 and 382"}, {"measurement": "FlexMap signal, transcript NM_000070 (LUA#2)", "setting": "[1]", "value": "437.5 and 358 and 444 (2×) and 393 (2×) and 419 and 422"}, {"measurement": "FlexMap signal, transcript NM_000153 (LUA#10)", "setting": "[1]", "value": "487 and 484 and 539 and 511 and 505 and 473 and 501 and 542"}, {"measurement": "FlexMap signal, transcript NM_000632 (LUA#12)", "setting": "[1]", "value": "369.5 and 476 and 491.5 and 406 and 400 and 360.5 and 374 and 395"}]}]}
